ChEMBL document CHEMBL4373665, “Discovery of new non-acidic lonazolac analogues with COX-2 selectivity as potent anti-inflammatory agents” (Medchemcomm, 2019)

Legend:
[1] = target: T1, Prostaglandin G/H synthase 2 (Homo sapiens, UniProt P35354); test: Inhibition of human recombinant COX2 assessed as decrease in prostaglandin production using arachidonic acid as substrate pretreated for 15 mins followed by substrate addition and measured after 2 mins by enzyme immunoassay
T1 sequence (P35354 whole entry): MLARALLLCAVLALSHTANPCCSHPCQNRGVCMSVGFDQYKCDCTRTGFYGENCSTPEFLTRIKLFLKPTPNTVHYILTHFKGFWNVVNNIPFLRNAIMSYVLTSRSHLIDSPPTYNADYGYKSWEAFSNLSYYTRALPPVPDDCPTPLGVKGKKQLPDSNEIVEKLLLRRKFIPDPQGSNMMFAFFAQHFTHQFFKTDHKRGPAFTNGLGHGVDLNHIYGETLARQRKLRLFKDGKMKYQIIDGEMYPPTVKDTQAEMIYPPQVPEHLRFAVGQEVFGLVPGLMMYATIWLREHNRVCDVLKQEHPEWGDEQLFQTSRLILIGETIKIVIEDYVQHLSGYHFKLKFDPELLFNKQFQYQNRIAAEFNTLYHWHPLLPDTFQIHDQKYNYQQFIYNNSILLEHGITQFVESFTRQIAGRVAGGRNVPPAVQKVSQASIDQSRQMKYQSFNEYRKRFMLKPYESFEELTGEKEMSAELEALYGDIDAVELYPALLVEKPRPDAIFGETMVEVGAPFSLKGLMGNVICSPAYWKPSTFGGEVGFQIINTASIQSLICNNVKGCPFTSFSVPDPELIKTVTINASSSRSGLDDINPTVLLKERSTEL

[2] = target: Prostaglandin G/H synthase 1 (Homo sapiens, UniProt P23219); test: Inhibition of human recombinant COX1 assessed as decrease in prostaglandin production using arachidonic acid as substrate pretreated for 15 mins followed by substrate addition and measured after 2 mins by enzyme immunoassay; assay type: single protein
Homo sapiens = organism: Homo sapiens; test: Selectivity index, ratio of IC50 for human recombinant COX1 to IC50 for human recombinant COX2 using arachidonic acid as substrate
Rattus norvegicus [3] = test: Anti-inflammatory activity in albino rat model of carrageenan-induced paw edema assessed as inhibition of carrageenan-induced paw edema at 100 mg/kg, po administered as single dose prior to carrageenan challenge measured after 4 hrs relative to control; assay type: functional
Rattus norvegicus [4] = test: Anti-inflammatory activity in albino rat model of carrageenan-induced paw edema assessed as inhibition of carrageenan-induced paw edema at 100 mg/kg, po administered as single dose prior to carrageenan challenge measured after 1 hr relative to control; assay type: functional
Rattus norvegicus [5] = test: Anti-inflammatory activity in albino rat model of carrageenan-induced paw edema assessed as inhibition of carrageenan-induced paw edema at 100 mg/kg, po administered as single dose prior to carrageenan challenge measured after 8 hrs relative to control; assay type: functional
Rattus norvegicus [6] = test: Anti-inflammatory activity in albino rat model of carrageenan-induced paw edema assessed as inhibition of carrageenan-induced paw edema at 100 mg/kg, po administered as single dose prior to carrageenan challenge measured after 3 hrs relative to control; assay type: functional
Rattus norvegicus [7] = test: Anti-inflammatory activity in albino rat model of carrageenan-induced paw edema assessed as paw edema thickness at 100 mg/kg, po administered as single dose prior to carrageenan challenge measured after 12 hrs; assay type: functional
Rattus norvegicus [8] = test: Anti-inflammatory activity in albino rat model of carrageenan-induced paw edema assessed as paw edema thickness at 100 mg/kg, po administered as single dose prior to carrageenan challenge measured after 8 hrs; assay type: functional

Prostaglandin G/H synthase 1, sequence (P23219 whole entry): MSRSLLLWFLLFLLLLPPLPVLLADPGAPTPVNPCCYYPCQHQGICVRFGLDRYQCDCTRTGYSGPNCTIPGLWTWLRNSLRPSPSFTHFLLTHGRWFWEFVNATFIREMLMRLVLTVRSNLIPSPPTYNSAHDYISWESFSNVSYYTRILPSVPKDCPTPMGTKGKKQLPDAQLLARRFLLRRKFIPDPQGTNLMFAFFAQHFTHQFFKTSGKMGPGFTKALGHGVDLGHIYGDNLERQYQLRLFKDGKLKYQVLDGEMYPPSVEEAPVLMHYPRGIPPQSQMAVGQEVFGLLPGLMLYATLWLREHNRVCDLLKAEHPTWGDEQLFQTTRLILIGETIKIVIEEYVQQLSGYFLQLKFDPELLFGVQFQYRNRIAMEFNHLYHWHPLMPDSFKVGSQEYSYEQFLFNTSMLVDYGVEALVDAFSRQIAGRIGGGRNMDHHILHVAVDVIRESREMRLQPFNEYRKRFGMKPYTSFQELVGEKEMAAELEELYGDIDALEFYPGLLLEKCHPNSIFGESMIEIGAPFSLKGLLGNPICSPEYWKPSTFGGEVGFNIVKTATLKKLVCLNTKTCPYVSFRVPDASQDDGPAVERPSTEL

| IC50 [1] | IC50 [2] | Ratio IC50 (Homo sapiens) | Structure (SMILES) | inhibition in vivo at 100 mg/kg (Rattus norvegicus [3]) | inhibition in vivo at 100 mg/kg (Rattus norvegicus [4]) | inhibition in vivo at 100 mg/kg (Rattus norvegicus [5]) | inhibition in vivo at 100 mg/kg (Rattus norvegicus [6]) | Activity (Rattus norvegicus [7]) | Activity (Rattus norvegicus [8]) |
| --- | --- | --- | --- | --- | --- | --- | --- | --- | --- |
| 4.69 µM | 6.07 µM | 1.31 | NC(=S)n1nc(-c2ccc(Cl)cc2)cc1-c1cn(-c2ccccc2)nc1-c1ccc(OCc2ccccc2)cc1 | 24.5% | 47.5% | 5.9% | 24.6% | 1.89 mm |  |
| 3.99 µM | 0.6 µM | 0.15 | Nc1nc(-c2ccc(Cl)cc2)cc(-c2cn(-c3ccccc3)nc2-c2ccc(OCc3ccccc3)cc2)n1 | 20.4% | 50.8% |  | 30.4% | 1.8 mm | 2.17 mm |
| 11.6 µM | 9.68 µM | 0.831 | N#CC1=C(N)OC(c2ccc(Cl)cc2)=CC1c1cn(-c2ccccc2)nc1-c1ccc(OCc2ccccc2)cc1 (stereo unspecified) | 18.2% | 28.8% |  | 38.2% | 1.85 mm | 2.31 mm |
| 2.79 µM | 2.72 µM | 0.975 | CC(=O)n1nc(-c2ccc(Cl)cc2)cc1-c1cn(-c2ccccc2)nc1-c1ccc(OCc2ccccc2)cc1 | 25.8% | 69.8% |  | 49.7% | 1.82 mm | 2.17 mm |
| 1 µM | 0.31 µM | 0.31 | S=c1nc(-c2ccccc2)cc(-c2cn(-c3ccccc3)nc2-c2ccc(OCc3ccccc3)cc2)[nH]1 | 14.6% | 48.5% |  | 33.8% | 1.88 mm | 2.19 mm |
| 2.11 µM | 9.57 µM | 4.54 | c1ccc(COc2ccc(-c3nn(-c4ccccc4)cc3-c3cc(-c4ccccc4)no3)cc2)cc1 | 28.4% | 73.8% | 6.9% | 42.5% | 1.83 mm |  |
| 5.2 µM | 5.2 µM | 1 | NC(=S)n1nc(-c2ccccc2)cc1-c1cn(-c2ccccc2)nc1-c1ccc(OCc2ccccc2)cc1 | 2.15% | 3.97% |  | 7.29% | 1.8 mm | 2.2 mm |
